According to paper PMC3411647 (PLoS ONE, 2012):

Experiments:
hH1R = target: T1, hH1R (Homo sapiens, UniProt P35367); experiment: Intracellular Ca2+ flux assay in HEK-293 cells stably expressing hH1R; type: cell-based
T1 construct: expressed in transfected cells
Text: (§1) Figure 3 The selectivity of ZEL-H16 for hH3R in intracellular Ca^2+ flux assay and CRE-luciferase transcription assay. A–C, Intracellular Ca^2+ flux or CRE-driven luciferase activity induced by ZEL-H16 in HEK-293 cells stably expressing hH1R (A), hH2R (B), or hH4R (C). […] The presented data points are the mean ±SE of triplicate values from a single experiment and are representative of three separate experiments. Statistical analysis between ZEL-H16 added or not added for each concentration point in the kinetic graph was done using a t-test (PRISM software). G, Relative expression of hH1R, hH2R, hH3R and hH4R on transfected HEK-293 cells by ELISA quantification for Flag-tagged cell-surface receptors (***p<0.001, compared to non-transfected HEK 293 cells).
The stably H1R-expressing HEK-293 cells were harvested with Cell Stripper (Mediatech, Herndon, VA), washed twice with phosphate-buffered saline (PBS), and resuspended in Hanks’ balanced salt solution (140 mM NaCl, 5 mM KCl, 10 mM HEPES, pH 7.4, 1 mM CaCl2, 1 mM MgCl2, 1 mg/ml glucose) containing 0.025% bovine serum albumin. […] Calcium flux was measured using excitation at 340 and 380 nm in a Infinite 200 PRO multifunctional microplate reader (Tecan Austria GmbH, Grödig, AT ) and [Ca^2+]i was measured using the 340/380 excitation ratio (R 340/380).

H3R = target: T2, H3R (Homo sapiens, UniProt Q9Y5N1); experiment: ERK1/2 phosphorylation (Western blot) in HEK-293 cells stably expressing H3R; type: cell-based
T2 construct: expressed in transfected cells
Description: Figure 7 Phosphorylation of ERK1/2 induced by ZEL-H16 in H3R-expressing HEK-293 cells. […] Signals were quantified by densitometric image analysis and p-ERK was normalized to a loading control (ERK). […] Concentration -dependent phosphorylation signals were quantified by densitometric analysis and p-ERK levels were normalized to total ERK levels. […] C, The phosphorylation of ERK1/2 induced by ZEL-H16 could be entirely abolished by co-incubation with H3R antagonist thioperamide (***p<0.001). Data represent the mean ±SE of three independent experiments.
HEK-293 cells stably expressing human H3R were grown in a 6-well plate and were serum starved 2 h in serum-free culture medium prior to stimulation. Cells were stimulated with the indicated H3R ligands at the designated concentrations. Incubations were stopped at the indicated times by removing the stimulation medium by aspiration. The cells were washed in ice-cold PBS and subsequently lysed in 100 µl of lysis buffer [20 mM HEPES (pH 7.5), 10 mM EDTA, 150 mM NaCl, 1% Triton X-100, and one tablet of complete protease inhibitor (Roche, Indianapolis, IN) per 50 mL] at 4°C on a rocker for 30 min. The lysates were centrifuged and separated by sodium dodecyl sulfate-polyacrylamide (12%) gel electrophoresis (SDS-PAGE) and blotted onto polyvinylidene difluoride membranes. Membranes were blocked for 1 h at room temperature in TBST (10 mmol/L Tris, 150 mmol/L NaCl, 0.1% Tween-20, pH 8.0) buffer containing 5% (v/w) skim milk. Membranes were probed overnight with primary antibodies against p-ERK1/2 (1∶1,000; Cell Signaling, Danvers, MA) in TBST containing 5% (v/w) BSA, and then probed with horseradish peroxidase-labeled secondary antibody (1∶5,000) for 1 h at room temperature in TBST containing 5% (v/w) milk powder. Immunoreactivity was detected by ECL assays. The blots were stripped and reprobed using antibodies against total ERK1/2 (1∶2,000) (Cell Signaling, Danvers, MA) as a control.

rat brain H3R = target: T3, rat brain H3R (Rattus norvegicus, UniProt Q9QYN8); experiment: Competitive/saturation binding with [3H]N-α-methylhistamine, rat cerebral cortex membranes; conditions: 2 nM [3H]N-α-methylhistamine, rat cerebral cortex membranes
T3 construct: from tissue; host or cells: rat cerebral cortex membranes
Description: Figure 4 Competition binding experiments with [^3H]-N-α-methylhistamine. […] The presented data are the means ±SE of values from a single experiment performed in duplicate and are representative of three to six separate experiments.
The membranes (50 µg of protein) were incubated with [^3H] N-α-methylhistamine at various concentrations (from 0.03 nM to 50 nM) for saturation binding assays. For competitive binding assays, the membranes (50 µg of protein) were incubated with 10 nM [^3H] N-α-methylhistamine for recombinant hH3R or 2nM [^3H] N-α-methylhistamine for rat brain H3R in the presence of various compound concentrations in the buffer (50 mM Tris–HCl, pH 7.4). […] Following three washes, the membrane-bound radioactivity was measured on a Topcount (PerkinElmer) at 20°C. […] IC50 values were converted to Ki values using the Cheng-Prusoff equation. Each experiment was performed in duplicate and repeated three to six times. All data were analyzed by nonline arregression using GraphPad Prism version 4.0 software.

H3R-EGFP = target: T4, H3R-EGFP (Homo sapiens, UniProt Q9Y5N1); experiment: Recycling of internalized H3R-EGFP to the cell surface, confocal microscopy; type: cell-based; conditions: 20 µM ZEL-H16 or 500 µM histamine for 30 min, cycloheximide 100 µg/ml
T4 construct: expressed in transfected cells
Description: Figure 6 Localization of internalized H3R-EGFP stably expressed in HEK-293 cells and recycling of internalized H3R to the cell surface. […] All pictures shown are representative of at least three independent experiments.
HEK-293 cells stably expressing H3R-EGFP were seeded in covered glass-bottom 6-well plates. […] After fixing the cells with 4% paraformaldehyde for 10 min, cells were mounted in mounting reagent (DTT/PBS/glycerol). Confocal images were taken on a Zeiss LSM 510 microscope with an attached Axiovert 200 microscope and LSM5 computer system. Images were collected using QED camera software and processed with Adobe Photoshop.

hH2R = target: T5, hH2R (Homo sapiens, UniProt P25021); experiment: CRE-driven luciferase activity in HEK-293 cells stably expressing hH2R; type: cell-based
T5 construct: expressed in transfected cells
Text: as §1
Stable HEK-293 cells co-transfected with H3R and pCRE-Luc were seeded in a 48-well plate overnight and were grown to […] confluence. […] Luciferase activity was detected using a firefly luciferase kit (Promega, Madison, WI). When required, cells were treated overnight with or without PTX (100 ng/ml) in serum-free DMEM before the experiment.

T2 sequence (Q9Y5N1 whole entry): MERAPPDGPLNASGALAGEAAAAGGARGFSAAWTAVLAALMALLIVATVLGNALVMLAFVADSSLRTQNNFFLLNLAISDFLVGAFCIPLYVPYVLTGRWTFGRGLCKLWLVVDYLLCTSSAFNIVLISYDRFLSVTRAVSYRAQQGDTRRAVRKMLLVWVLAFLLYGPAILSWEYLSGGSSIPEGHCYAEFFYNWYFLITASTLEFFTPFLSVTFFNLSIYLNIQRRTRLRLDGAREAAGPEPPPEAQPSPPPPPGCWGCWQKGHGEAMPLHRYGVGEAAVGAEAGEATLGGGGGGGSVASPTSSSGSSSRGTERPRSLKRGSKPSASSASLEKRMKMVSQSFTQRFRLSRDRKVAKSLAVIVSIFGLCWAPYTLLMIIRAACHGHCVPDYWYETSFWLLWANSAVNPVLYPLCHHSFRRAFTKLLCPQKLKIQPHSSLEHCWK
T5 sequence (P25021 whole entry): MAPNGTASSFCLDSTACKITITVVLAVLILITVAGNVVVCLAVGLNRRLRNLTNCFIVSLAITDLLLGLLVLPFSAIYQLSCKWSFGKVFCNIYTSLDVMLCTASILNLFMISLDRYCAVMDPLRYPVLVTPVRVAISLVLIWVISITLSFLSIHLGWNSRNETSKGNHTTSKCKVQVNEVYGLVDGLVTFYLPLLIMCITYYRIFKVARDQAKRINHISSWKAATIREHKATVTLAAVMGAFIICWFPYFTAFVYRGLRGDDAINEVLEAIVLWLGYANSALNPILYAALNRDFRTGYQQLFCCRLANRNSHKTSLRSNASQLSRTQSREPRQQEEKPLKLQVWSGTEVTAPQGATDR
T1 sequence (P35367 whole entry): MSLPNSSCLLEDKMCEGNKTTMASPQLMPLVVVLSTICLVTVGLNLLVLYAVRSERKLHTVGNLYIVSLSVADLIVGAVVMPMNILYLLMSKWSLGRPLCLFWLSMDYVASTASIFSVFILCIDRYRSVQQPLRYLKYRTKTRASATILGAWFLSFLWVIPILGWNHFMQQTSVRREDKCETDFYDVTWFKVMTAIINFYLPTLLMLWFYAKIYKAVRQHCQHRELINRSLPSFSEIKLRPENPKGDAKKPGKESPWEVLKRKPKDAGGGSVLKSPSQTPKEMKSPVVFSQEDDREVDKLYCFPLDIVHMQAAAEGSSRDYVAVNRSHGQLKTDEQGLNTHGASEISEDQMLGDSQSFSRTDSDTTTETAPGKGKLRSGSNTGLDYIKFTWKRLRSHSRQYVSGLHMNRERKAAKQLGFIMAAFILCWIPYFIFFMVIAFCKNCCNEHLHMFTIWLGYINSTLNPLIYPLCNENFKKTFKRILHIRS
T3 sequence (Q9QYN8 whole entry): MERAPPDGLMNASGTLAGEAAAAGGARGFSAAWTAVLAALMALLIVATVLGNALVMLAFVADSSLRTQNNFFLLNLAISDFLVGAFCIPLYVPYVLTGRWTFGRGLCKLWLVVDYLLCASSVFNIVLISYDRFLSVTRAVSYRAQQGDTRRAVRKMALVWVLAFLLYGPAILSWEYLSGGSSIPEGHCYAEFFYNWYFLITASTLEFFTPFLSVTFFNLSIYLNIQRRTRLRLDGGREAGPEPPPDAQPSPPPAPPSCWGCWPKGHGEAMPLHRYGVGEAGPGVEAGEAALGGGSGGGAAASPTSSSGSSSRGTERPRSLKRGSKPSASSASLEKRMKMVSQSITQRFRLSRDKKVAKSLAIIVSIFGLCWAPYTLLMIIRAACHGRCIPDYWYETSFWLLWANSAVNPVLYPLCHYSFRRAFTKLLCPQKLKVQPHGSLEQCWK
T4 sequence (Q9Y5N1 whole entry): as the sequence (Q9Y5N1 whole entry) above

EC50 (H3R; 10 nM to 100 µM, Western-blot densitometry): 1100 ± 100 nM | time of maximal ERK1/2 activation after stimulation (H3R; 1 µM): 2 min | Emax at 1 µM (H3R; HEK293, read-out: maximal activation of ERK1/2 relative to maximal activation induced by histamine, 1 µM): ~50% | Ki (rat brain H3R): 4.36 ± 2 nM | time for internalized H3R to recycle to the cell surface after agonist removal (H3R-EGFP): ≤ 3 h | agonist activity: luciferase activity after stimulation (hH2R; ZEL-H16 alone): no significant responses
SMILES: c1ccc2c(c1)c(CCCN1CCCCC1)cn2CCCN1CCCCC1 [ZEL-H16]
antagonist activity: influence on Ca2+ release stimulated by histamine (hH1R; ZEL-H16 added to histamine): neither modulate the intracellular Ca^2+ release stimulated by histamine | agonist activity: intracellular Ca2+ release (hH1R; ZEL-H16 alone, compared to histamine): did not induce similar intracellular Ca^2+ release | antagonist activity: influence on luciferase activity curves induced by histamine (hH2R; ZEL-H16 added to histamine): did not significantly change the luciferase activity curves
